Measured values published in patent publication US20240115672A1, “TREATMENT OF AN IOP CONDITION” (THE RESEARCH FOUNDATION FOR THE STATE UNIVERSITY OF NEW YORK, priority 2021, published 2024).

What was measured:
[1] = system: MMP-2, MMP-9, MMP-13 expression in HTM cells; experiment: MMP expression in HTM cells (Examples 17, 18); assay type: cell-based, human; conditions: for MMP-9 expression compared to PA+NE-tPA treated cells: p<0.0001
[2] = system: Mmp-2, Mmp-9, Mmp-13 mRNA in angle ring tissues; experiment: Mmp expression in Tg-MYOCY437H angle ring tissues (Example 19); assay type: in vivo, mouse; conditions: 5 days treatment
Experimental: Eyes were flash frozen in liquid nitrogen after outflow facility determination and subsequently dissected on ice to obtain the angle ring tissues containing the TM, as previously described (Kumar, Shah et al. 2013). Dissected TM tissues were immersed in RNAlater solution (Invitrogen, Waltham, MA, USA) and then snap-frozen and stored at −80° C. until RNA extraction. Tissue collected was pooled (four eyes) and homogenized in TRIzol reagent for RNA isolation, per manufacturer's instructions (Life Technologies, Carlsbad, CA, USA). RNA concentration was determined with a Nanodrop ND-1000 Spectrophotometer (Thermo Scientific, Wilmington, DE, USA). cDNA was synthesized by using High-Capacity cDNA
Reverse Transcription Kit (Applied Biosystems, Waltham, MA, USA) according to manufacturer's protocol. Quantitative real-time PCR (qRT-PCR) was performed by using Green-2-Go qPCR Mastermix-ROX (Bio Basic, Amherst, NY, USA) on a QuantStudio 6 Flex thermal cycler (Applied Biosystems, Carlsbad, CA, USA). mRNA expression of Plat, Plait, Pai-1, Mmp-2, Mmp-9, and Mmp-13 in angle ring tissues was determined. Primers were designed by using Primer-BLAST (haps://www.ncbi.nlm.nih.gov/tools/primer-blast/index.cgi?LINK_LOC=BlastHome; in the public domain); primer sequences are listed in Table 2. Primer specificity was confirmed by agarose gel electrophoresis and multiple-sized amplification products were absent on inspection of melting curves. Target mRNA expression values were normalized to the expression levels of Rps11 (ribosomal protein S11). The relative fold change was calculated by using the ΔΔCt method (Hu, Wang et al. 2015). Outliers identified via the Thompson Tau test were removed from analysis.

[3] = system: Tg-MYOCY437H mice; conditions: systemic and topical administration; cited from earlier work
[4] = system: sheep; experiment: Sheep given tPA or arginine concurrently with prednisolone (Example 3 Protocol 2, Example 4); assay type: in vivo; conditions: 4.23 mg arginine intravitreal plus prednisolone (OS) compared to tPA and prednisolone (OD)
Experimental: Protocol 2. In a second set of experiments, arginine was added to the BSS vehicle administered to the left eye to control for the relatively high concentration of the amino acid in the commercially available tPA lyophilisate. In these experiments all right eyes received 0.1 mg tPA, which concomitantly delivered 4.23 mg of arginine into the vitreous, and the left eye received this same amount of arginine, absent the tPA. On Day 1, prednisolone treatments were also begun simultaneously on both eyes.
Methods. In this experiment, the inventor sought to detect the effects of tPA treatment on prevention of steroid-induced IOP elevation. In 4 sheep tPA was injected in one eye (100 μg) and they were started on prednisolone acetate three times a day in both eyes. Animals were monitored for 11 days on continuous treatment.

[5] = system: sheep of the Coriedale breed; experiment: IOP in prednisolone-treated sheep after tPA injection into the anterior chamber (Example 9); assay type: in vivo
Experimental: Methods. Lyophilized IPA, obtained as Acetilyse® from Boehringer Ingelheim S.A. (Buenos Aires) containing arginine. was used. Five sheep of the Coriedale breed were selected. Initially all eyes received instillation of 1% prednisolone 3 times/day for 10 days to elevate their IOP from 10 mm Hg to about 23 mm Hg. Then, 0.0001 μg was injected into one of the eyes and its effect was followed for up to 55:00 hrs while the instillation of prednisolone continued in both eyes. The same protocol was implemented for the 0.001 and 0.01 μg amounts (after extended washout) in the contra lateral eyes. Arginine, which is associated with 0.01 ug tPA, was injected alone and had no effect.

## C[C@]12N[C@H](Cc3ccccc31)c1ccccc12 [MK-801]
[1]; inhibitor added to PA+NE-tPA
  MMP-9 expression compared to PA+NE-tPA treated cells: significantly lower
[1]; inhibitor added to PA+NE-tPA, p<0.05
  MMP-2 expression compared to PA+NE-tPA treatment: significant reduction

## O=C([O-])CCCc1ccccc1.[Na+] [PBA, sodium phenylbutarate]
[2]
  Mmp-9 expression compared to BSA treated eyes: higher
  Mmp-13 expression compared to BSA treated eyes: did not show any difference
[2]; p>0.05
  Mmp-2 expression compared to BSA treated eyes: no significant difference
[3]
  effect on IOP: effective in reducing IOP

## N=C(N)NCCC[C@H](N)C(=O)O [arginine]
[4]
  effect of arginine alone: failed to reduce outflow facility
[5]; amount associated with 0.01 ug tPA
  effect of arginine injected alone: no effect

## CC(=O)OCC(=O)[C@@]1(O)CC[C@H]2[C@@H]3CCC4=CC(=O)C=C[C@]4(C)[C@H]3[C@@H](O)C[C@@]21C [prednisolone, prednisolone acetate]
[5]; 1% prednisolone 3 times/day for 10 days, from 10 mm Hg
  IOP after prednisolone: about 23 mm Hg
[1]; PA treated HTM cells
  MMP-13 expression (FIG. 17D): below detection limits

B1: RAP: inhibitor of LRP1 (protein, UniProt P30533 35-357, looked up)
Alpha-2-macroglobulin …: YSREKNQPKPSPKRESGEEFRMEKLNQLWEKAQRLHLPPVRLAELHADLKIQERDELAWKKLKLDGLDEDGEKEARLIRNLNVILAKYGLDGKKDARQVTSNSLSGTQEDGLDDPRLEKLWHKAKTSGKFSGEELDKLWREFLHHKEKVHEYNVLLETLSRTEEIHENVISPSDLSDIKGSVLHSRHTELKEKLRSINQGLDRLRRVSHQGYSTEAEFEEPRVIDLWDLAQSANLTDKELEAFREELKHFEAKIEKHNHYQKQLEIAHEKLRHAESVGDGERVSRSREKHALLEGRTKELGYTVKKHLQDLSGRISRARHNEL
[1]; inhibitor added to PA+NE-tPA
  MMP-9 expression compared to PA+NE-tPA treated cells: significantly lower
